The values below come from patent US20090131302A1, “Transient receptor potential vanilloid 1 and uses thereof” (priority 2007, published 2009).

The subject of assay [1] is p38. The following applies: models of inflammation and neuropathy; cited from earlier work.
Assay [2] concerns MEK. The following applies: cited from earlier work.
Assay [3] addresses T1, TRPV1 (Rattus norvegicus, UniProt O35433).
T1 construct: endogenous in cells; host or cells: living rats (neonatal and adult); DRG and spinal cord tissue for the expression work
As to the kind of experiment: Neonatal colonic capsaicin infusion; sensitivity to colorectal distention at 7 weeks. The class given is in vivo. The following applies: 0.2 ml of 50 mg/ml into colon at P10, tested at 7 weeks, 20, 40, 60, 80 mm Hg, vs unmanipulated and vehicle.
Protocol: To treat neonatal rats with capsaicin, ten day old rat pups received an infusion of 0.2 mls of 50 mg/ml capsaicin or 0.2 mls vehicle: 10% ethanol, 10% Tween 20, 80% saline or were left unmanipulated. Visceral sensitivity and inflammatory parameters were measured in these rats between 8 and 12 weeks of age. […] After 4 weeks, rats were tested for sensitivity to colorectal distention.
Visceral hypersensitivity was measured by grading the response of rats to colorectal distention as previously described.^11 Briefly, under mild sedation with 1% Brevital (Eli Lily & Co Indianapolis, Ind.) 25 mg/kg i.p.), a flexible balloon (5 cm) constructed from a surgical glove finger attached to a tygon tubing was inserted 8 cm into the descending colon and rectum via the anus and held in place by taping the tubing to the tail. Rats were placed in small Lucite cubicles (20×8×8 cm) (Bioengineering Department, UTMB) and were allowed to adapt for 30 minutes. […] Pressure was measured using a sphygmomanometer connected to a pressure transducer. […] Behavioral responses to colorectal distention were measured by visual observation of the abdominal withdrawal reflex by blinded observer and the assignment of an AWR score as follows: 1=Normal behavior without response 2=Contraction of abdominal muscles; 3=Lifting of abdominal wall; 4=Body arching and lifting of pelvic structures. […]

Assay [4] relates to p38 and ERK. The following applies: peripheral administration; cited from earlier work.

T1 sequence (O35433 whole entry): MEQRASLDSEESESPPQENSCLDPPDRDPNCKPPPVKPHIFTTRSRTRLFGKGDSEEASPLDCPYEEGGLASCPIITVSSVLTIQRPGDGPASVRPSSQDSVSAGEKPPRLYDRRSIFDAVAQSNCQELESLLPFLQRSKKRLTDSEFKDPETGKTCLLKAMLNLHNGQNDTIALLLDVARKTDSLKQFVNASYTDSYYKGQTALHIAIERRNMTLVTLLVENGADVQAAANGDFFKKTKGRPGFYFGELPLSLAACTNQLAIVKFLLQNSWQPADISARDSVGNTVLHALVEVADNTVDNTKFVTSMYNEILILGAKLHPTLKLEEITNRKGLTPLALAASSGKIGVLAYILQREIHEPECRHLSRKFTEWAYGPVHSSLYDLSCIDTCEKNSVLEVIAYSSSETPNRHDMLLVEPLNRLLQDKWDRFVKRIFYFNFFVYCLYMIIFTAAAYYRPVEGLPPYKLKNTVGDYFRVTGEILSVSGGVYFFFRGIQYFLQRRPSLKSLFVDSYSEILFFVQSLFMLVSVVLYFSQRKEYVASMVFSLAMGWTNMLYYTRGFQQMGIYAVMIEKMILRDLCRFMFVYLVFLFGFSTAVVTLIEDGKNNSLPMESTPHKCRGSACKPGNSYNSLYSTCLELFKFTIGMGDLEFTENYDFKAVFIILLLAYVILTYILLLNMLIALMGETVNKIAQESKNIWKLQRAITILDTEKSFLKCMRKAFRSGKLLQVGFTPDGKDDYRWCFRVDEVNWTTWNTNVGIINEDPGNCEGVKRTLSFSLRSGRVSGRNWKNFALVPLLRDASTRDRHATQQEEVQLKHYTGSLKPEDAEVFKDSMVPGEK

In the case of `C[S+]([O-])c1ccc(-c2nc(-c3ccncc3)c(-c3ccc(F)cc3)[nH]2)cc1` (stereo not drawn) [SB-203580], the “development of behavioral hypersensitivity” value in assay [1] was “blocks the development of behavioral hypersensitivity”.
As to `N#CC(=C(/N)Sc1ccccc1N)/C(C#N)=C(\N)Sc1ccccc1N` [U0126], the “epinephrine induced mechanical hypersensitivity” value in assay [2] (in vivo) is given as “reduces epinephrine induced mechanical hypersensitivity”. The “thermal and mechanical hypersensitivity” value in assay [2] (models of inflammation and neuropathic pain) was “attenuates thermal and mechanical hypersensitivity”.
On to `COc1cc(CNC(=O)CCCC/C=C/C(C)C)ccc1O` [capsaicin], for which the “sensitivity to colorectal distention” value was “increased sensitivity” in assay [3] and “significantly more sensitive to colorectal distention” in assay [3] (listed as CAP). Moreover, in assay [4], the “p38 and ERK activation in dorsal root ganglia neurons” value was “activates p38 and ERK”.
